The record followed here is patent publication US20260265233A1, “BENZOTHIOPHENE DERIVATIVES AS RXFP1 AGONISTS” (BRISTOL-MYERS SQUIBB COMPANY, priority 2021, published 2026).

This experiment has as its target T1, human RXFP1 (Homo sapiens, UniProt Q9HBX9).
T1 construct: expressed in transfected cells
T1 sequence (Q9HBX9 1-757): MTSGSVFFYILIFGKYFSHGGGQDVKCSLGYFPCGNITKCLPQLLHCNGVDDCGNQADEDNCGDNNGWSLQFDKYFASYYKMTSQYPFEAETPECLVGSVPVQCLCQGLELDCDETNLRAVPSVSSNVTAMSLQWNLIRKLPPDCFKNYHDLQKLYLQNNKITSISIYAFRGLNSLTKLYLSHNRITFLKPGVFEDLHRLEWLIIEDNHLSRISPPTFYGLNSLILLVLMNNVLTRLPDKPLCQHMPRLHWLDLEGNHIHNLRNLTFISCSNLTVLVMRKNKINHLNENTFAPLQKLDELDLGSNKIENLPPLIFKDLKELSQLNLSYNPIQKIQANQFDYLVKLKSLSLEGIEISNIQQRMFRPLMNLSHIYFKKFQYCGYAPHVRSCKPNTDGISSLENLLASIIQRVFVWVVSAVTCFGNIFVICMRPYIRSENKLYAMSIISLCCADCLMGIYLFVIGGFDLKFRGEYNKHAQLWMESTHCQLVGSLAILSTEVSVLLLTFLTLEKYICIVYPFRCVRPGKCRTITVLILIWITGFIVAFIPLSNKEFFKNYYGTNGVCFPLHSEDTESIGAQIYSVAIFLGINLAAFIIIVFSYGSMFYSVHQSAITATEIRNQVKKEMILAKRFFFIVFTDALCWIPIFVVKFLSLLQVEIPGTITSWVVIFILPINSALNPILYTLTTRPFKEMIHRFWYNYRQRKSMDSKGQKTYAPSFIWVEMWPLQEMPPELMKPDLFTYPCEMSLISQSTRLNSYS
The experiment in a line: hRXFP1 HEK293 cAMP assay (HTRF). The experiment is classed as cell-based. The note with it: HEK293 cells stably expressing human RXFP1; 30 min at rt; intracellular cAMP by HTRF. An outline of the steps: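 HEK293 cells stably expressing human RXFP1 treated 30 min at rt with compound (0.010 nM to 50 μM, 2% DMSO) in HBSS/HEPES buffer with 0.5 mM IBMX. Intracellular cAMP measured by HTRF (665/590 nm ratio) against a cAMP standard curve; potency fitted by 4-parameter logistic.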
For orientation: cAMP levels reflect the balance of adenylyl cyclase and phosphodiesterase activity.
`COc1ccc(C2CCN(C(=O)CCO)C2)cc1C(=O)Nc1c(C(=O)Nc2ccc(F)c(C(F)(F)F)c2)sc2cc(C(F)(F)F)ccc12` (centres unmarked) [Example 137, N-(4-fluoro-3-(trifluoromethyl)phenyl)-3-(5-(1-(3-hydroxypropanoyl)pyrrolidin-3-yl)-2-methoxy-benzamido)-6-(trifluoromethyl) benzo[b] thiophene-2-carboxamide] displayed an EC50 of 0.591 µM.

With `COc1ccc(C2CCN(C(=O)C3(O)CC3)C2)cc1C(=O)Nc1c(C(=O)Nc2ccc(F)c(C(F)(F)F)c2)sc2cc(C(F)(F)F)ccc12` (centres unmarked) [Example 138, N-(4-fluoro-3-(trifluoromethyl)phenyl)-3-(5-(1-(1-hydroxycyclo-propane-1-carbonyl)pyrrolidin-3-yl)-2-methoxy-benzamido)-6-(trifluoromethyl) benzo[b] thiophene-2-carboxamide], it took 0.213 µM to reach a half-maximal effect (EC50).

`COc1ccc(C2CCN(C(=O)C(C)(C)O)C2)cc1C(=O)Nc1c(C(=O)Nc2ccc(F)c(C(F)(F)F)c2)sc2cc(C(F)(F)F)ccc12` (centres unmarked) [Example 140, N-(4-fluoro-3-(trifluoromethyl)phenyl)-3-(5-(1-(2-hydroxy-2-methylpropanoyl)pyrrolidin-3-yl)-2-methoxy-benzamido)-6-(trifluoromethyl) benzo[b] thiophene-2-carboxamide]: the midpoint of the response, the EC50, lay at 0.0979 µM.

Take `COc1ccc(C2CCN(C(=O)CO)C2)cc1C(=O)Nc1c(C(=O)Nc2ccc(F)c(C(F)(F)F)c2)sc2cc(C(F)(F)F)ccc12` (centres unmarked) [Example 141, N-(4-fluoro-3-(trifluoromethyl)phenyl)-3-(5-(1-(2-hydroxyacetyl)pyrrolidin-3-yl)-2-methoxy-benzamido)-6-(trifluoromethyl) benzo[b] thiophene-2-carboxamide]: the response was half-maximal at 0.4 µM (EC50).

`COc1ccc(C2CCN(C3COC3)C2)cc1C(=O)Nc1c(C(=O)Nc2ccc(F)c(C(F)(F)F)c2)sc2cc(C(F)(F)F)ccc12` (centres unmarked) [Example 142, N-(4-fluoro-3-(trifluoromethyl)phenyl)-3-(2-methoxy-5-(1-(oxetan-3-yl)pyrrolidin-3-yl)benzamido)-6-(trifluoromethyl) benzo[b] thiophene-2-carboxamide] returned an EC50 of 0.619 µM.

Compound `COCCC(=O)N1CCC(c2ccc(OC)c(C(=O)Nc3c(C(=O)Nc4ccc(F)c(C(F)(F)F)c4)sc4cc(C(F)(F)F)ccc34)c2)C1` (centres unmarked) [Example 143, N-(4-fluoro-3-(trifluoromethyl)phenyl)-3-(2-methoxy-5-(1-(3-methoxypropanoyl)pyrrolidin-3-yl)benzamido)-6-(trifluoromethyl) benzo[b] thiophene-2-carboxamide] showed a concentration for a half-maximal effect (EC50) of 1.54 µM.

Compound `COCC(=O)N1CCC(c2ccc(OC)c(C(=O)Nc3c(C(=O)Nc4ccc(F)c(C(F)(F)F)c4)sc4cc(C(F)(F)F)ccc34)c2)C1` (centres unmarked) [Example 144, N-(4-fluoro-3-(trifluoromethyl)phenyl)-3-(2-methoxy-5-(1-(2-methoxyacetyl)pyrrolidin-3-yl)benzamido)-6-(trifluoromethyl) benzo[b] thiophene-2-carboxamide] yielded an EC50 of 1.43 µM.

`COc1ccc(C2CCN(C(=O)C(F)F)C2)cc1C(=O)Nc1c(C(=O)Nc2ccc(F)c(C(F)(F)F)c2)sc2cc(C(F)(F)F)ccc12` (centres unmarked) [Example 145, 3-(5-(1-(2,2-difluoroacetyl)pyrrolidin-3-yl)-2-methoxy-benzamido)-N-(4-fluoro-3-(trifluoromethyl)phenyl)-6-(trifluoromethyl) benzo[b] thiophene-2-carboxamide] showed an EC50 of 1.65 µM.

In turn, `COc1ccc(C2CCN(C(=O)CC#N)C2)cc1C(=O)Nc1c(C(=O)Nc2ccc(F)c(C(F)(F)F)c2)sc2cc(C(F)(F)F)ccc12` (centres unmarked) [Example 146, 3-(5-(1-(2-cyanoacetyl)pyrrolidin-3-yl)-2-methoxy-benzamido)-N-(4-fluoro-3-(trifluoromethyl)phenyl)-6-(trifluoromethyl) benzo[b] thiophene-2-carboxamide] yielded an EC50 of 1.1 µM.

Take `COc1ccc(C2CCN(CC(N)=O)C2)cc1C(=O)Nc1c(C(=O)Nc2ccc(F)c(C(F)(F)F)c2)sc2cc(C(F)(F)F)ccc12` (centres unmarked) [Example 147, 3-(5-(1-(2-amino-2-oxoethyl)pyrrolidin-3-yl)-2-methoxy-benzamido)-N-(4-fluoro-3-(trifluoromethyl)phenyl)-6-(trifluoromethyl) benzo[b] thiophene-2-carboxamide]: a half-maximal effect (EC50) was put at 1.43 µM.

Compound `COc1ccc(C2CCN(S(C)(=O)=O)C2)cc1C(=O)Nc1c(C(=O)Nc2ccc(F)c(C(F)(F)F)c2)sc2cc(C(F)(F)F)ccc12` (centres unmarked) [Example 148, N-(4-fluoro-3-(trifluoromethyl)phenyl)-3-(2-methoxy-5-(1-(methylsulfonyl)pyrrolidin-3-yl)benzamido)-6-(trifluoromethyl) benzo[b] thiophene-2-carboxamide] yielded a half-maximal effective concentration (EC50) of 2.24 µM.

`COc1ccc(C2CCN(C(=O)C(C)(C)O)C2)cc1C(=O)Nc1c(C(=O)Nc2ccc(F)c(C(F)(F)F)c2)sc2cc(C(F)(F)F)ccc12` (centres unmarked) [Example 151, N-(4-fluoro-3-(trifluoromethyl)phenyl)-3-(5-(1-(2-hydroxy-2-methylpropanoyl)pyrrolidin-3-yl)-2-methoxy-benzamido)-6-(trifluoromethyl) benzo[b] thiophene-2-carboxamide]: the response was half-maximal at 0.208 µM (EC50).

Take `COc1ccc(C2CCN(C(=O)CO)C2)cc1C(=O)Nc1c(C(=O)Nc2ccc(F)c(C(F)(F)F)c2)sc2cc(C(F)(F)F)ccc12` (centres unmarked) [Example 152, N-(4-fluoro-3-(trifluoromethyl)phenyl)-3-(5-(1-(2-hydroxyacetyl)pyrrolidin-3-yl)-2-methoxy-benzamido)-6-(trifluoromethyl) benzo[b] thiophene-2-carboxamide]: the half-maximal effective concentration (EC50) worked out at 0.613 µM.

`COc1ccc(C2CCN(C3COC3)C2)cc1C(=O)Nc1c(C(=O)Nc2ccc(F)c(C(F)(F)F)c2)sc2cc(C(F)(F)F)ccc12` (centres unmarked) [Example 154, N-(4-fluoro-3-(trifluoromethyl)phenyl)-3-(2-methoxy-5-(1-(oxetan-3-yl)pyrrolidin-3-yl)benzamido)-6-(trifluoromethyl) benzo[b] thiophene-2-carboxamide]: the concentration giving a half-maximal response (EC50) turned out to be 0.553 µM.

In turn, `COc1ccc(C2CCN(CC(N)=O)C2)cc1C(=O)Nc1c(C(=O)Nc2ccc(F)c(C(F)(F)F)c2)sc2cc(C(F)(F)F)ccc12` (centres unmarked) [Example 155, 3-{5-[1-(carbamoyl-methyl)pyrrolidin-3-yl]-2-methoxy-benzamido}-N-[4-fluoro-3-(trifluoromethyl)phenyl]-6-(trifluoromethyl)-1-benzothiophene-2-carboxamide] came in with an EC50 of 0.902 µM.

In turn, `COc1ccc(C2CCN(CC(N)=O)C2)cc1C(=O)Nc1c(C(=O)Nc2ccc(F)c(C(F)(F)F)c2)sc2cc(C(F)(F)F)ccc12` (centres unmarked) [Example 156, 3-(5-(1-(2-amino-2-oxoethyl)pyrrolidin-3-yl)-2-methoxy-benzamido)-N-(4-fluoro-3-(trifluoromethyl)phenyl)-6-(trifluoromethyl) benzo[b] thiophene-2-carboxamide] had a half-maximal effective concentration (EC50) of 2.18 µM.

Take `COc1ccc(C2CC2C(C)(C)O)cc1C(=O)Nc1c(C(=O)Nc2ccc(F)c(C(F)(F)F)c2)sc2cc(C(F)(F)F)ccc12` (centres unmarked) [Example 159, N-(4-fluoro-3-(trifluoromethyl)phenyl)-3-(5-(2-(2-hydroxypropan-2-yl)cyclopropyl)-2-methoxy-benzamido)-6-(trifluoromethyl) benzo[b] thiophene-2-carboxamide]: the EC50 stood at 0.199 µM.

As for `COc1ccc(C2CC2C(=O)N2CC(O)C2)cc1C(=O)Nc1c(C(=O)Nc2ccc(F)c(C(F)(F)F)c2)sc2cc(C(F)(F)F)ccc12` (centres unmarked) [Example 162, N-(4-fluoro-3-(trifluoromethyl)phenyl)-3-(5-(2-(3-hydroxyazetidine-1-carbonyl)cyclopropyl)-2-methoxy-benzamido)-6-(trifluoromethyl) benzo[b] thiophene-2-carboxamide], a half-maximal response (EC50) required 0.292 µM. The EC50 values of the last two compounds are within 1.5-fold of each other.

As for `COc1ccc(C2CC2C(=O)N2CC(OC)C2)cc1C(=O)Nc1c(C(=O)Nc2ccc(F)c(C(F)(F)F)c2)sc2cc(C(F)(F)F)ccc12` (centres unmarked) [Example 163, N-[4-fluoro-3-(trifluoromethyl)phenyl]-3-{2-methoxy-5-[2-(3-methoxyazetidine-1-carbonyl)cyclopropyl]benzamido}-6-(trifluoromethyl)-1-benzothiophene-2-carboxamide], a half-maximal response (EC50) required 0.662 µM. This EC50 lies about 2.3-fold higher than the previous one.

In the case of `COc1ccc(C2CC2C(=O)N2CC(C(C)(C)O)C2)cc1C(=O)Nc1c(C(=O)Nc2ccc(F)c(C(F)(F)F)c2)sc2cc(C(F)(F)F)ccc12` (centres unmarked) [Example 165, N-[4-fluoro-3-(trifluoromethyl)phenyl]-3-(5-{2-[3-(2-hydroxypropan-2-yl)azetidine-1-carbonyl]cyclopropyl}-2-methoxy-benzamido)-6-(trifluoromethyl)-1-benzothiophene-2-carboxamide], the concentration for a half-maximal effect (EC50) is 3.05 µM.

In general, EC50 refers to the concentration needed to bring the measured effect to its halfway point. Higher therefore signals a need for much substance.
